Experiments:
Assay type in all cases: functional
HOP-92 = experiment: Growth inhibition of human HOP92 cells assessed as growth inhibition at 10 uM by sulforhodamine B assay; conditions: read-out: GI
PC-3 = experiment: Growth inhibition of human PC3 cells assessed as growth inhibition at 10 uM by sulforhodamine B assay; conditions: read-out: GI
RXF 393 = experiment: Growth inhibition of human RXF393 cells assessed as cell growth at 10 uM by sulforhodamine B assay; conditions: read-out: Activity
NCI-H522 = experiment: Growth inhibition of human NCI-H522 cells assessed as cell growth at 10 uM by sulforhodamine B assay; conditions: read-out: Activity
786-0 = experiment: Growth inhibition of human 786-0 cells assessed as cell growth at 10 uM by sulforhodamine B assay; conditions: read-out: Activity
HCT-15 = experiment: Growth inhibition of human HCT15 cells assessed as cell growth at 10 uM by sulforhodamine B assay; conditions: read-out: Activity
HOP-62 = experiment: Growth inhibition of human HOP62 cells assessed as growth inhibition at 10 uM by sulforhodamine B assay; conditions: read-out: GI
HT-29 = experiment: Growth inhibition of human HT-29 cells assessed as growth inhibition at 10 uM by sulforhodamine B assay; conditions: read-out: GI
IGROV-1 = experiment: Growth inhibition of human IGROV1 cells assessed as cell growth at 10 uM by sulforhodamine B assay; conditions: read-out: Activity
SK-MEL-28 = experiment: Growth inhibition of human SK-MEL-28 cells assessed as growth inhibition at 10 uM by sulforhodamine B assay; conditions: read-out: GI
MOLT-4 [1] = experiment: Growth inhibition of human MOLT4 cells assessed as cell growth at 10 uM by sulforhodamine B assay; conditions: read-out: Activity
OVCAR-5 = experiment: Growth inhibition of human OVCAR5 cells assessed as growth inhibition at 10 uM by sulforhodamine B assay; conditions: read-out: GI
LOX IMVI = experiment: Growth inhibition of human LOXIMVI cells assessed as growth inhibition at 10 uM by sulforhodamine B assay; conditions: read-out: GI
UACC-62 = experiment: Growth inhibition of human UACC62 cells assessed as cell growth at 10 uM by sulforhodamine B assay; conditions: read-out: Activity
MOLT-4 [2] = experiment: Growth inhibition of human MOLT4 cells assessed as growth inhibition at 10 uM by sulforhodamine B assay; conditions: read-out: GI
T47D [3] = experiment: Growth inhibition of human T47D cells assessed as growth inhibition at 10 uM by sulforhodamine B assay; conditions: read-out: GI
T47D [4] = experiment: Growth inhibition of human T47D cells assessed as cell growth at 10 uM by sulforhodamine B assay; conditions: read-out: Activity
TK-10 = experiment: Growth inhibition of human TK10 cells assessed as cell growth at 10 uM by sulforhodamine B assay; conditions: read-out: Activity
SR [5] = experiment: Growth inhibition of human SR cells assessed as cell growth at 10 uM by sulforhodamine B assay; conditions: read-out: Activity
OVCAR-8 = experiment: Growth inhibition of human OVCAR8 cells assessed as cell growth at 10 uM by sulforhodamine B assay; conditions: read-out: Activity
MDA-MB-231 = experiment: Growth inhibition of human MDA-MB-231 cells assessed as growth inhibition at 10 uM by sulforhodamine B assay; conditions: read-out: GI
SW-620 = experiment: Growth inhibition of human SW620 cells assessed as growth inhibition at 10 uM by sulforhodamine B assay; conditions: read-out: GI
SR [6] = experiment: Growth inhibition of human SR cells assessed as growth inhibition at 10 uM by sulforhodamine B assay; conditions: read-out: GI

Row | Structure (SMILES) | inhibition of growth at 10 µM (HOP-92) [%] | inhibition of growth at 10 µM (PC-3) [%] | growth at 10 µM (RXF 393) [%] | growth at 10 µM (NCI-H522) [%] | growth at 10 µM (786-0) [%] | growth at 10 µM (HCT-15) [%] | inhibition of growth at 10 µM (HOP-62) [%] | inhibition of growth at 10 µM (HT-29) [%] | growth at 10 µM (IGROV-1) [%] | inhibition of growth at 10 µM (SK-MEL-28) [%] | growth at 10 µM (MOLT-4 [1]) [%] | inhibition of growth at 10 µM (OVCAR-5) [%] | inhibition of growth at 10 µM (LOX IMVI) [%] | growth at 10 µM (UACC-62) [%] | inhibition of growth at 10 µM (MOLT-4 [2]) [%] | inhibition of growth at 10 µM (T47D [3]) [%] | growth at 10 µM (T47D [4]) [%] | growth at 10 µM (TK-10) [%] | growth at 10 µM (SR [5]) [%] | growth at 10 µM (OVCAR-8) [%] | other results
1 | CC1(C)C[C@@H](O)[C@]2(C(=O)O)CC[C@]3(C)C(=CC[C@@H]4[C@@]5(C)CCC(=O)C(C)(C)[C@@H]5CC[C@]43C)[C@@H]2C1 | 24.6 | 40.7 | 112 | 80.9 | 86.2 | 75.4 | 11.3 | 16.8 | 92.3 | < 10 | 78.7 | < 10 | < 10 | 80.5 | 21.3 | 19.2 | 80.8 | 106 | 83.7 | 80.8 | inhibition of growth at 10 µM (MDA-MB-231): < 10%; inhibition of growth at 10 µM (SW-620): < 10%; inhibition of growth at 10 µM (SR [6]): 16.3%
2 | CC1(C)C[C@@H](O)[C@]2(C(=O)O)CC[C@]3(C)C(=CC[C@@H]4[C@@]5(C)CC[C@H](O)C(C)(C)[C@@H]5CC[C@]43C)[C@@H]2C1 | < 10 | 23.5 | 112 | 95.3 | 90.7 | 96.5 | < 10 | < 10 | 97.6 | < 10 | 78.3 | < 10 | 11.1 | 88.2 | 21.7 | < 10 | 93 | 99.7 | 78 | 93.7 | inhibition of growth at 10 µM (MDA-MB-231): < 10%; inhibition of growth at 10 µM (SW-620): < 10%; inhibition of growth at 10 µM (SR [6]): 22%
3 | COc1cc(/C=C2\C[C@]3(C)[C@H]4CC=C5[C@@H]6CC(C)(C)C[C@@H](O)[C@]6(C(=O)O)CC[C@@]5(C)[C@]4(C)CC[C@H]3C(C)(C)C2=O)ccc1O | 29.1 | 27.8 | 109 | 80.8 | 102 | 76.5 | < 10 | 14.5 | 97.8 | < 10 | 63.3 | < 10 | 11.6 | 75 | 36.7 | 18.9 | 81.1 | 116 | 87.1 | 79.8 | inhibition of growth at 10 µM (MDA-MB-231): < 10%; inhibition of growth at 10 µM (SW-620): < 10%; inhibition of growth at 10 µM (SR [6]): 12.9%

Source: ChEMBL document CHEMBL2413072, “Synthesis and in vitro anticancer studies of novel C-2 arylidene congeners of lantadenes” (2013)
